Columns and labels:
chickweed [1] = assay: Test Example 5: herbicidal effect by foliage application, plastic box (Table 20, symbol P); assay type: in vivo, common chickweed (Stellaria media); conditions: foliage application, 320 g/ha, evaluated three weeks after application
Outline: (§1)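 Plants were sown into sterilized diluvial soil under about 1.5 cm cover and kept in a greenhouse at 25° C. to 30° C. Fourteen days on, foliage received an even spray of the diluted emulsion. Herbicidal or crop effect was judged three weeks afterwards.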

oval-leafed pondweed = assay: Test Example 1: herbicidal activity, application before weed generation under submerged conditions (Table 16, symbol C); assay type: in vivo, oval-leafed pondweed (Monochoria vaginalis); conditions: 320 g/ha applied herbicide
Outline: (§2)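 Submerged Wagner pots (alluvial soil, 4 cm water) sown with weed seeds and planted with 2.5-leaf rice seedlings; emulsifiable concentrate diluted in water applied to water surface on sowing day. Held in greenhouse at 25-30 °C; injury scored 0-5 by herbicidal rate after three weeks.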

southern crabgrass [2] = assay: Test Example 4: herbicidal effect by soil treatment (Table 19, symbol F); assay type: in vivo, southern crabgrass (Digitaria ciliaris); conditions: amount of applied herbicide 320 g/ha
Outline: (§3)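 Pre-emergence style soil spray: seeds under ~1.5 cm sterilized diluvial soil received a uniform coat of emulsion diluted to the predetermined herbicide amount. Greenhouse 25–30° C; readout at week three on previously defined criteria.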

Japanese bulrush = assay: Test Example 1: herbicidal activity, application before weed generation under submerged conditions (Table 16, symbol B); assay type: in vivo, Japanese bulrush (Schoenoplectus juncoides); conditions: 320 g/ha applied herbicide
Outline: as §2

barnyard grass [3] = assay: Test Example 3: herbicidal effect by foliage application, Wagner pot (Table 18, symbol H); assay type: in vivo, barnyard grass (Echinochloa crus-galli); conditions: amount of applied herbicide 320 g/ha
Outline: (§4)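 Plants were sown in alluvial soil held under 0.1–0.5 cm standing water and grown 14 days in a greenhouse at 25–30 °C. An emulsifiable formulation, water-diluted to the set dose, was then sprayed onto the foliage, and effects were scored three weeks later using previously defined criteria.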

rice flat sedge = assay: Test Example 3: herbicidal effect by foliage application, Wagner pot (Table 18, symbol E); assay type: in vivo, rice flat sedge (Cyperus iria); conditions: amount of applied herbicide 320 g/ha
Outline: as §4

lambsquarters [4] = assay: Test Example 4: herbicidal effect by soil treatment (Table 19, symbol O); assay type: in vivo, lambsquarters (Chenopodium album); conditions: amount of applied herbicide 320 g/ha
Outline: as §3

blackgrass [5] = assay: Test Example 5: herbicidal effect by foliage application, plastic box (Table 20, symbol J); assay type: in vivo, blackgrass (Alopecurus myosuroides); conditions: foliage application, 320 g/ha, evaluated three weeks after application
Outline: as §1

barnyard grass [6] = assay: Test Example 5: herbicidal effect by foliage application, plastic box (Table 20, symbol H); assay type: in vivo, barnyard grass (Echinochloa crus-galli); conditions: foliage application, 320 g/ha, evaluated three weeks after application
Outline: as §1

green foxtail [7] = assay: Test Example 4: herbicidal effect by soil treatment (Table 19, symbol G); assay type: in vivo, green foxtail (Setaria viridis); conditions: amount of applied herbicide 320 g/ha
Outline: as §3

blackgrass [8] = assay: Test Example 4: herbicidal effect by soil treatment (Table 19, symbol J); assay type: in vivo, blackgrass (Alopecurus myosuroides); conditions: amount of applied herbicide 320 g/ha
Outline: as §3

Italian ryegrass [9] = assay: Test Example 5: herbicidal effect by foliage application, plastic box (Table 20, symbol K); assay type: in vivo, Italian ryegrass (Lolium multiflorum); conditions: foliage application, 320 g/ha, evaluated three weeks after application
Outline: as §1

Italian ryegrass [10] = assay: Test Example 4: herbicidal effect by soil treatment (Table 19, symbol K); assay type: in vivo, Italian ryegrass (Lolium multiflorum); conditions: amount of applied herbicide 320 g/ha
Outline: as §3

windgrass [11] = assay: Test Example 4: herbicidal effect by soil treatment (Table 19, symbol L); assay type: in vivo, windgrass (Apera spica-venti); conditions: amount of applied herbicide 320 g/ha
Outline: as §3

velvetleaf [12] = assay: Test Example 4: herbicidal effect by soil treatment (Table 19, symbol M); assay type: in vivo, velvetleaf (Abutilon theophrasti); conditions: amount of applied herbicide 320 g/ha
Outline: as §3

chickweed [13] = assay: Test Example 4: herbicidal effect by soil treatment (Table 19, symbol P); assay type: in vivo, common chickweed (Stellaria media); conditions: amount of applied herbicide 320 g/ha
Outline: as §3

wild oat [14] = assay: Test Example 4: herbicidal effect by soil treatment (Table 19, symbol I); assay type: in vivo, wild oat (Avena fatua); conditions: amount of applied herbicide 320 g/ha
Outline: as §3

southern crabgrass [15] = assay: Test Example 5: herbicidal effect by foliage application, plastic box (Table 20, symbol F); assay type: in vivo, southern crabgrass (Digitaria ciliaris); conditions: foliage application, 320 g/ha, evaluated three weeks after application
Outline: as §1

wild oat [16] = assay: Test Example 5: herbicidal effect by foliage application, plastic box (Table 20, symbol I); assay type: in vivo, wild oat (Avena fatua); conditions: foliage application, 320 g/ha, evaluated three weeks after application
Outline: as §1

redroot pigweed [17] = assay: Test Example 4: herbicidal effect by soil treatment (Table 19, symbol N); assay type: in vivo, redroot pigweed (Amaranthus retroflexus); conditions: amount of applied herbicide 320 g/ha
Outline: as §3

late watergrass = assay: Test Example 1: herbicidal activity, application before weed generation under submerged conditions (Table 16, symbol A); assay type: in vivo, late watergrass (Echinochloa oryzicola); conditions: 320 g/ha applied herbicide
Outline: as §2

redroot pigweed [18] = assay: Test Example 5: herbicidal effect by foliage application, plastic box (Table 20, symbol N); assay type: in vivo, redroot pigweed (Amaranthus retroflexus); conditions: foliage application, 320 g/ha, evaluated three weeks after application
Outline: as §1

windgrass [19] = assay: Test Example 5: herbicidal effect by foliage application, plastic box (Table 20, symbol L); assay type: in vivo, windgrass (Apera spica-venti); conditions: foliage application, 320 g/ha, evaluated three weeks after application
Outline: as §1

barnyard grass [20] = assay: Test Example 4: herbicidal effect by soil treatment (Table 19, symbol H); assay type: in vivo, barnyard grass (Echinochloa crus-galli); conditions: amount of applied herbicide 320 g/ha
Outline: as §3

Chinese sprangletop = assay: Test Example 3: herbicidal effect by foliage application, Wagner pot (Table 18, symbol D); assay type: in vivo, chinese sprangletop (Leptochloa chinensis); conditions: amount of applied herbicide 320 g/ha
Outline: as §4

lambsquarters [21] = assay: Test Example 5: herbicidal effect by foliage application, plastic box (Table 20, symbol O); assay type: in vivo, lambsquarters (Chenopodium album); conditions: foliage application, 320 g/ha, evaluated three weeks after application
Outline: as §1

velvetleaf [22] = assay: Test Example 5: herbicidal effect by foliage application, plastic box (Table 20, symbol M); assay type: in vivo, velvetleaf (Abutilon theophrasti); conditions: foliage application, 320 g/ha, evaluated three weeks after application
Outline: as §1

persian speedwell [23] = assay: Test Example 4: herbicidal effect by soil treatment (Table 19, symbol R); assay type: in vivo, Persian speedwell (Veronica persica); conditions: amount of applied herbicide 320 g/ha
Outline: as §3

green foxtail [24] = assay: Test Example 5: herbicidal effect by foliage application, plastic box (Table 20, symbol G); assay type: in vivo, green foxtail (Setaria viridis); conditions: foliage application, 320 g/ha, evaluated three weeks after application
Outline: as §1

persian speedwell [25] = assay: Test Example 5: herbicidal effect by foliage application, plastic box (Table 20, symbol R); assay type: in vivo, Persian speedwell (Veronica persica); conditions: foliage application, 320 g/ha, evaluated three weeks after application
Outline: as §1

Compound | herbicidal effect on P: chickweed (criteria 0-5) (chickweed [1]) | Herbicidal effect on C: oval-leafed pondweed (grade 0-5) (oval-leafed pondweed) | Herbicidal effect on B: Japanese bulrush (grade 0-5) (Japanese bulrush) | herbicidal effect on H: barnyard grass (barnyard grass [3]) | herbicidal effect on E: rice flat sedge (rice flat sedge) | herbicidal effect on J: blackgrass (criteria 0-5) (blackgrass [5]) | herbicidal effect on H: barnyard grass (criteria 0-5) (barnyard grass [6]) | herbicidal effect on K: Italian ryegrass (criteria 0-5) (Italian ryegrass [9]) | herbicidal effect on F: southern crabgrass (criteria 0-5) (southern crabgrass [15]) | herbicidal effect on I: wild oat (criteria 0-5) (wild oat [16]) | Herbicidal effect on A: late watergrass (grade 0-5) (late watergrass) | herbicidal effect on N: redroot pigweed (criteria 0-5) (redroot pigweed [18]) | herbicidal effect on L: windgrass (criteria 0-5) (windgrass [19]) | herbicidal effect on D: Chinese sprangletop (Chinese sprangletop) | herbicidal effect on O: lambsquarters (criteria 0-5) (lambsquarters [21]) | herbicidal effect on M: velvetleaf (criteria 0-5) (velvetleaf [22]) | herbicidal effect on G: green foxtail (criteria 0-5) (green foxtail [24]) | herbicidal effect on R: persian speedwell (criteria 0-5) (persian speedwell [25]) | further results
CCOc1cccc(-c2sc3ccc(F)cc3c2-c2c(O)c(C)nn(C)c2=O)c1 [2-211] | 5 (Herbicidal rate of 90% or more (almost completely withered)) | 0 (Herbicidal rate of 5% or less (almost no effect)) | 0 (Herbicidal rate of 5% or less (almost no effect)) | 5 (Herbicidal rate of 90% or more (almost completely withered)) | 4 (Herbicidal rate of 70% or more and less than 90%) | 4 (Herbicidal rate of 70% or more and less than 90%) | 5 (Herbicidal rate of 90% or more (almost completely withered)) | 5 (Herbicidal rate of 90% or more (almost completely withered)) | 5 (Herbicidal rate of 90% or more (almost completely withered)) | 0 (Herbicidal rate of 5% or less (almost no effect)) | 2 (Herbicidal rate of 20% or more and less than 40%) | 5 (Herbicidal rate of 90% or more (almost completely withered)) | 4 (Herbicidal rate of 70% or more and less than 90%) | 5 (Herbicidal rate of 90% or more (almost completely withered)) | 5 (Herbicidal rate of 90% or more (almost completely withered)) | 5 (Herbicidal rate of 90% or more (almost completely withered)) | 5 (Herbicidal rate of 90% or more (almost completely withered)) | 5 (Herbicidal rate of 90% or more (almost completely withered)) | F: southern crabgrass, herbicidal effect rating (southern crabgrass [2]): 5 (Herbicidal rate of 90% or more (almost completely withered)); O: lambsquarters, herbicidal effect rating (lambsquarters [4]): 2 (Herbicidal rate of 20% or more and less than 40%); G: green foxtail, herbicidal effect rating (green foxtail [7]): 4 (Herbicidal rate of 70% or more and less than 90%); J: blackgrass, herbicidal effect rating (blackgrass [8]): 4 (Herbicidal rate of 70% or more and less than 90%); K: Italian ryegrass, herbicidal effect rating (Italian ryegrass [10]): 5 (Herbicidal rate of 90% or more (almost completely withered)); L: windgrass, herbicidal effect rating (windgrass [11]): 3 (Herbicidal rate of 40% or more and less than 70%); M: velvetleaf, herbicidal effect rating (velvetleaf [12]): 3 (Herbicidal rate of 40% or more and less than 70%); P: chickweed, herbicidal effect rating (chickweed [13]): 3 (Herbicidal rate of 40% or more and less than 70%); I: wild oat, herbicidal effect rating (wild oat [14]): 0 (Herbicidal rate of 5% or less (almost no effect)); N: redroot pigweed, herbicidal effect rating (redroot pigweed [17]): 5 (Herbicidal rate of 90% or more (almost completely withered)); H: barnyard grass, herbicidal effect rating (barnyard grass [20]): 5 (Herbicidal rate of 90% or more (almost completely withered)); R: persian speedwell, herbicidal effect rating (persian speedwell [23]): 5 (Herbicidal rate of 90% or more (almost completely withered))
CCCC(=O)Oc1c(C)nn(C)c(=O)c1-c1c(-c2cccc(OC(C)(C)C)c2)sc2ccc(F)cc12 [2-224] | 5 (Herbicidal rate of 90% or more (almost completely withered)) | 0 (Herbicidal rate of 5% or less (almost no effect)) | 0 (Herbicidal rate of 5% or less (almost no effect)) | 4 (Herbicidal rate of 70% or more and less than 90%) | 3 (Herbicidal rate of 40% or more and less than 70%) | 0 (Herbicidal rate of 5% or less (almost no effect)) | 3 (Herbicidal rate of 40% or more and less than 70%) | 0 (Herbicidal rate of 5% or less (almost no effect)) | 0 (Herbicidal rate of 5% or less (almost no effect)) | 0 (Herbicidal rate of 5% or less (almost no effect)) | 5 (Herbicidal rate of 90% or more (almost completely withered)) | 2 (Herbicidal rate of 20% or more and less than 40%) | 0 (Herbicidal rate of 5% or less (almost no effect)) | 4 (Herbicidal rate of 70% or more and less than 90%) | 3 (Herbicidal rate of 40% or more and less than 70%) | 3 (Herbicidal rate of 40% or more and less than 70%) | 1 (Herbicidal rate of 5% or more and less than 20%) | 5 (Herbicidal rate of 90% or more (almost completely withered)) | herbicidal effect on F: southern crabgrass (southern crabgrass [2]): 0 (Herbicidal rate of 5% or less (almost no effect)); herbicidal effect on O: lambsquarters (lambsquarters [4]): 0 (Herbicidal rate of 5% or less (almost no effect)); herbicidal effect on G: green foxtail (green foxtail [7]): 0 (Herbicidal rate of 5% or less (almost no effect)); herbicidal effect on J: blackgrass (blackgrass [8]): 0 (Herbicidal rate of 5% or less (almost no effect)); herbicidal effect on K: Italian ryegrass (Italian ryegrass [10]): 0 (Herbicidal rate of 5% or less (almost no effect)); herbicidal effect on L: windgrass (windgrass [11]): 0 (Herbicidal rate of 5% or less (almost no effect)); herbicidal effect on M: velvetleaf (velvetleaf [12]): 0 (Herbicidal rate of 5% or less (almost no effect)); herbicidal effect on P: chickweed (chickweed [13]): 0 (Herbicidal rate of 5% or less (almost no effect)); herbicidal effect on I: wild oat (wild oat [14]): 0 (Herbicidal rate of 5% or less (almost no effect)); herbicidal effect on N: redroot pigweed (redroot pigweed [17]): 0 (Herbicidal rate of 5% or less (almost no effect)); herbicidal effect on H: barnyard grass (barnyard grass [20]): 0 (Herbicidal rate of 5% or less (almost no effect)); herbicidal effect on R: persian speedwell (persian speedwell [23]): 4 (Herbicidal rate of 70% or more and less than 90%)

From patent US20230085307A1, “PYRIDAZINONE COMPOUND AND HERBICIDE” (NISSAN CHEMICAL CORPORATION, priority 2019, published 2023)
